Publication doi:10.1101/2021.01.27.428399v1 (biorxiv, 2021)

Target: T1, GluR0 (Synechocystis sp. PCC 6803, UniProt P73797)
T1 sequence (P73797 20-397): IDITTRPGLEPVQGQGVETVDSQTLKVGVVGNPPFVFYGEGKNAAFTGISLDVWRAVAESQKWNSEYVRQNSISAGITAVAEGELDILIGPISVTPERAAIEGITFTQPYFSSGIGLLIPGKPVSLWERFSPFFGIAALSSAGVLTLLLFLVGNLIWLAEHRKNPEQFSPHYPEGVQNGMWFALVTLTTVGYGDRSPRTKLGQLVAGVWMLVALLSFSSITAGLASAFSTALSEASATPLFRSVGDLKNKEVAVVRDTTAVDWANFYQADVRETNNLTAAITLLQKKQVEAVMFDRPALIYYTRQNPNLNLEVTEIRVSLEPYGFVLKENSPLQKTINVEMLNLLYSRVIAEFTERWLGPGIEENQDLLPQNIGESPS
Assay: two-electrode voltage clamp, Xenopus oocytes
Format: cell-based

**Q.** Which EC50 does the source give for `N[C@@H](CCC(=O)O)C(=O)O` [L-glutamate] here?
**A.** 29.9 ± 5 µM
